Test results published in patent US20110152093A1, “Herbicidal compositions comprising flufenacet” (Bayer CropScience AG, priority 2009, published 2011).

Columns and labels:
Format in all cases: in vivo
VIOAR (Viola arvensis) = test: Post-emergence (PO) action against weeds, greenhouse trial, test method 2; settings: PO application; g of AS/ha: (A) 240, (B) 1200, (C) 140, (A)+(B)+(C) 240 + 1200 + 140
Description: (§1) In the standard design of the test, seeds of various broad-leaved weed and weed grass biotypes (origins) were sown in a 8-13 cm diameter pot filled with natural soil of a standard field soil (loamy silt; non-sterile) and covered with a covering soil layer of about 1 cm. The pots were then cultivated in a greenhouse (12-16 h of light, temperature day 20-22° C., night 15-18° C.) until the time of application. The pots were treated on a laboratory track sprayer with spray liquors comprising the compositions according to the invention, mixtures of the prior art or components used individually. Application of the active compounds or active compound combinations formulated as WG, WP, EC or otherwise was carried out at the appropriate growth stages of the plants. The application rate for the spray application was 100-600 l of water/ha. After the treatment, the plants were returned to the greenhouses.
(§2) About 3 weeks after the application, the soil action or/and foliar action was assessed visually according to a scale of 0-100% in comparison to an untreated comparative group: 0%=no noticeable effect compared to the untreated comparative group; 100%=full effect compared to the untreated comparative group.
(§3) (notes: the term “seeds” also includes vegetative propagation forms such as, for example, rhizome pieces; abbreviations used: h light=hours of illumination, g of AS/ha=gram of active substance per hectare, l/ha=liter per hectare, S=sensitive, R=resistant) • 1. Pre-emergence action against weeds: seeds of various broad-leaved weed and weed grass biotypes (origins) were sown in a 8-13 cm diameter pot filled with natural soil of a standard field soil (loamy silt; non-sterile) and covered with a covering soil layer of about 1 cm. The pots were then cultivated in a greenhouse (12-16 h of light, temperature day 20-22° C., night 15-18° C.) until the time of application. The pots were treated at the BBCH stage 00-10 of the seeds/plants on a laboratory track sprayer with spray liquors comprising the compositions according to the invention, mixtures or components used individually, as WG, WP, EC or other formulations. The application rate for the spray application was 100-600 l of water/ha. After the treatment, the plants were returned to the greenhouses and, when required, treated with fertilizer and watered. • 2. Post-emergence action against weeds: seeds of various broad-leaved weed and weed grass biotypes (origins) were sown in a 8-13 cm diameter pot filled with natural soil of a standard field soil (loamy silt; non-sterile) and covered with a covering soil layer of about 1 cm. The pots were then cultivated in a greenhouse (12-16 h of light, temperature day 20-22° C., night 15-18° C.) until the time of application. The pots were treated at various BBCH stages between 11-25 of the seeds/plants, i.e. generally between two to three weeks after the start of the cultivation, on a laboratory track sprayer with spray liquors comprising the compositions according to the invention, mixtures or components used individually, as WG, WP, EC or other formulations. The application rate for the spray application was 100-600 l of water/ha. After the treatment, the plants were returned to the greenhouses and, when required, treated with fertilizer and watered. • 3. […]

[1] = tested on: LOLSS sensitive (Lolium species); test: PE action on resistant weed biotypes, test method 8; settings: PE application; g of AS/ha: (A) 90, (B) 1200, (C) 140, (A)+(B)+(C) 90 + 1200 + 140, iodosulfuron 10
Description: as §1, §2
(§4) (notes: the term “seeds” also includes vegetative propagation forms such as, for example, rhizome pieces; abbreviations used: h light=hours of illumination, g of AS/ha=gram of active substance per hectare, l/ha=liter per hectare, S=sensitive, R=resistant) • 1. Pre-emergence action against weeds: seeds of various broad-leaved weed and weed grass biotypes (origins) were sown in a 8-13 cm diameter pot filled with natural soil of a standard field soil (loamy silt; non-sterile) and covered with a covering soil layer of about 1 cm. The pots were then cultivated in a greenhouse (12-16 h of light, temperature day 20-22° C., night 15-18° C.) until the time of application. The pots were treated at the BBCH stage 00-10 of the seeds/plants on a laboratory track sprayer with spray liquors comprising the compositions according to the invention, mixtures or components used individually, as WG, WP, EC or other formulations. The application rate for the spray application was 100-600 l of water/ha. After the treatment, the plants were returned to the greenhouses and, when required, treated with fertilizer and watered. • 2. Post-emergence action against weeds: seeds of various broad-leaved weed and weed grass biotypes (origins) were sown in a 8-13 cm diameter pot filled with natural soil of a standard field soil (loamy silt; non-sterile) and covered with a covering soil layer of about 1 cm. The pots were then cultivated in a greenhouse (12-16 h of light, temperature day 20-22° C., night 15-18° C.) until the time of application. The pots were treated at various BBCH stages between 11-25 of the seeds/plants, i.e. generally between two to three weeks after the start of the cultivation, on a laboratory track sprayer with spray liquors comprising the compositions according to the invention, mixtures or components used individually, as WG, WP, EC or other formulations. The application rate for the spray application was 100-600 l of water/ha. After the treatment, the plants were returned to the greenhouses and, when required, treated with fertilizer and watered. • 3. Selective pre-emergence action: seeds of various crop species (origins) were sown in a 8-13 cm diameter pot filled with natural soil of a standard field soil (loamy silt; non-sterile) and covered with a covering soil layer of about 1 cm. The pots were then cultivated in a greenhouse (12-16 h of light, temperature day 20-22° C., night 15-18° C.) until the time of application. The pots were treated at the BBCH stage 00-10 of the seeds/plants on a laboratory track sprayer with spray liquors comprising the compositions according to the invention, mixtures or components used individually, as WG, WP, EC or other formulations. The application rate for the spray application was 100-600 l of water/ha. […]

[2] = tested on: ALOMY sensitive (Alopecurus myosuroides); test: as above; settings: PE application; g of AS/ha: (A) 90, (B) 1200, (C) 140, (A)+(B)+(C) 90 + 1200 + 140, iodosulfuron 10
Description: as §1, §2, §4

[3] = tested on: ALOMY resistant (Alopecurus myosuroides); test: as above; settings: PE application; g of AS/ha: (A) 90, (B) 1200, (C) 140, (A)+(B)+(C) 90 + 1200 + 140, iodosulfuron 10
Description: as §1, §2, §4

LOLPE (Lolium perenne) [4] = test: PE action under various irrigation conditions, test method 6; settings: PE application, g of AS/ha: (A) 90, (B) 1200, (C) 140, (A)+(B)+(C) 90 + 1200 + 140
Description: as §1, §2, §4

[5] = tested on: MATCH (Matricaria chamomilla); test: as above; settings: PE application; irrigation from below; g of AS/ha: (A) 90, (B) 1200, (C) 140, (A)+(B)+(C) 90 + 1200 + 140
Description: as §1, §2, §4

AVEFA (Avena fatua) = test: PE action at different soil pH values, test method 10; settings: PE application, g of AS/ha: (A) 90, (B) 1200, (C) 140, (A)+(B)+(C) 90 + 1200 + 140
Description: as §1, §2

[6] = tested on: HORVS (Hordeum vulgare, summer barley); test: Action under various soil conditions (soil types), test method 7, crop compatibility; settings: IU/EC73 soil versus IU soil; g of AS/ha: (A) 90, (B) 1200, (C) 140, (A)+(B)+(C) 90 + 1200 + 140
Description: as §1, §2, §3

LOLPE (Lolium perenne) [7] = test: Pre-sowing application action against weeds (7 days prior to sowing), test method 5; settings: application 7 days prior to sowing; g of AS/ha: (A) 90, (B) 1200, (C) 140, (A)+(B)+(C) 90 + 1200 + 140
Description: as §1, §2
(notes: the term “seeds” also includes vegetative propagation forms such as, for example, rhizome pieces; abbreviations used: h light=hours of illumination, g of AS/ha=gram of active substance per hectare, l/ha=liter per hectare, S=sensitive, R=resistant) • 1. Pre-emergence action against weeds: seeds of various broad-leaved weed and weed grass biotypes (origins) were sown in a 8-13 cm diameter pot filled with natural soil of a standard field soil (loamy silt; non-sterile) and covered with a covering soil layer of about 1 cm. The pots were then cultivated in a greenhouse (12-16 h of light, temperature day 20-22° C., night 15-18° C.) until the time of application. The pots were treated at the BBCH stage 00-10 of the seeds/plants on a laboratory track sprayer with spray liquors comprising the compositions according to the invention, mixtures or components used individually, as WG, WP, EC or other formulations. The application rate for the spray application was 100-600 l of water/ha. After the treatment, the plants were returned to the greenhouses and, when required, treated with fertilizer and watered. • 2. Post-emergence action against weeds: seeds of various broad-leaved weed and weed grass biotypes (origins) were sown in a 8-13 cm diameter pot filled with natural soil of a standard field soil (loamy silt; non-sterile) and covered with a covering soil layer of about 1 cm. The pots were then cultivated in a greenhouse (12-16 h of light, temperature day 20-22° C., night 15-18° C.) until the time of application. […]

[8] = tested on: MATCH (Matricaria chamomilla); test: Action under various soil conditions (soil types), test method 7; settings: g of AS/ha: (A) 90, (B) 1200, (C) 140, (A)+(B)+(C) 90 + 1200 + 140
Description: as §1, §2, §4

[9] = tested on: HORVS (Hordeum vulgare, summer barley); test: Selective post-emergence action (crop compatibility), greenhouse trial, test method 4; settings: PO application; g of AS/ha: (A) 240, (B) 1200, (C) 140, (A)+(B)+(C) 240 + 1200 + 140
Description: as §1, §2
(notes: the term “seeds” also includes vegetative propagation forms such as, for example, rhizome pieces; abbreviations used: h light=hours of illumination, g of AS/ha=gram of active substance per hectare, l/ha=liter per hectare, S=sensitive, R=resistant) • 1. Pre-emergence action against weeds: seeds of various broad-leaved weed and weed grass biotypes (origins) were sown in a 8-13 cm diameter pot filled with natural soil of a standard field soil (loamy silt; non-sterile) and covered with a covering soil layer of about 1 cm. The pots were then cultivated in a greenhouse (12-16 h of light, temperature day 20-22° C., night 15-18° C.) until the time of application. […]

CC(C)N(C(=O)COc1nnc(C(F)(F)F)s1)c1ccc(F)cc1 [(A) flufenacet, N-(4-fluorophenyl)-N-(1-methylethyl)-2-[[5-(trifluoromethyl)-1,3,4-thiadiazol-2-yl]oxy]acetamide]
activity VIOAR (visual, scale 0-100%) (VIOAR (Viola arvensis)): 50% | activity LOLSS sensitive [1]: 5% | activity ALOMY sensitive [2]: 80% | activity ALOMY resistant [3]: 68% | activity LOLPE (LOLPE (Lolium perenne) [4]; irrigation from above): 82% | activity LOLPE (LOLPE (Lolium perenne) [4]; irrigation from below): 75% | activity MATCH [5]: 15% | activity AVEFA pH 7.4 (AVEFA (Avena fatua); soil pH 7.4): 80% | activity AVEFA pH 8.4 (AVEFA (Avena fatua); soil pH 8.4): 55% | Difference of the soil types, HORVS [6]: −10% | activity LOLPE (LOLPE (Lolium perenne) [7]): 93% | activity MATCH IU soil ([8]; IU soil): 28% | Difference of the soil types, MATCH ([8]; IU/EC73 soil versus IU soil): −23% | activity MATCH IU/EC73 soil ([8]; IU/EC73 soil): 5% | activity HORVS (crop plant; visual, scale 0-100%) [9]: 60%
